{
  "source": "paper PMC8534050",
  "about": "“Discovery of a Potent and Highly Isoform-Selective Inhibitor of the Neglected Ribosomal Protein S6 Kinase Beta 2 (S6K2)” (Cancers, 2021)",
  "key": {"[1]": {"assay": "Nα-acetyl lysine stability assay (HPLC)", "type": "physicochemical", "settings": "for half-life: read-out: half-life t1/2 towards Nα-acetyl lysine (converted)", "method": "The Nα-acetyl lysine stability assay was performed in analogy to the GSH stability assay by substituting GSH with Nα-acetyl lysine at pH 7.4 and additionally at pH 10.2 to mimic the pKa depression often observed for biologically relevant lysines. PBS-buffer was substituted with a sodium tetraborate buffer (28 mM) for experiments at pH 10.2.\n4. Nα-Acetyl Lysine Stability Assay […]\nh. The stability towards Nα-acetyl lysine at pH 10.2 was corrected for the slope of the curve of the […]\nFigure S11. Nα-acetyl lysine stability assay of compound 2 at pH 7.4 and pH 10.2. Error bars represent the standard deviation of triplicate measurements. AUC: area under the curve of residual starting material 2, t: time in hours."}, "Microsomal stability": {"assay": "Microsomal stability", "type": "in vitro ADME, mouse", "settings": "100 μM, NADPH-regenerating system, up to 90 min", "method": "Pooled liver microsomes from mice (male) were purchased from XenoTech LLC (Sekisui XenoTech LLC, Kansas City, KS, USA). Incubation of compound 2 was made in the presence of an NADPH-regenerating system (5 mM glucose-6-phosphate, 5 U/mL glucose-6-phosphate dehydrogenase, and 1 mM NADP^+). Compound 2 (100 μM), the NADPH-regenerating system, and 4 mM MgCl2⋅6 H2O in 0.1 M Tris buffer (pH 7.4) were preincubated for 5 min at 37 °C and 750 rpm on a shaker. The incubation mix was split into aliquots (50 μL) and the reaction was started by the addition of mouse liver microsomes. The reaction was quenched at selected time points (0, 10, 20, 30, 60, and 90 min) by adding 100 μL internal standard at a concentration of 50 μM in MeCN. The samples were vortexed for 30 s and centrifuged (19,800 relative centrifugal force/4 °C/15 min). The supernatant was directly used for LC-MS analysis. All incubations were conducted in triplicates and a limit of 1% organic solvent was not exceeded. […]\nDetection was performed on a Micromass Quattro micro triple quadrupole mass spectrometer (Waters GmbH, Eschborn, Germany) using electrospray ionization in positive mode. […] The data were analyzed using MassLynx 4.1 (Waters Corporation, Milford, MA, USA)"}, "AURKB": {"target": "T1, AURKB (Homo sapiens, UniProt Q96GD4)", "T1 construct": "purchased in-house DSF (thermal shift) panel per Fedorov et al", "T1 sequence (Q96GD4 whole entry)": "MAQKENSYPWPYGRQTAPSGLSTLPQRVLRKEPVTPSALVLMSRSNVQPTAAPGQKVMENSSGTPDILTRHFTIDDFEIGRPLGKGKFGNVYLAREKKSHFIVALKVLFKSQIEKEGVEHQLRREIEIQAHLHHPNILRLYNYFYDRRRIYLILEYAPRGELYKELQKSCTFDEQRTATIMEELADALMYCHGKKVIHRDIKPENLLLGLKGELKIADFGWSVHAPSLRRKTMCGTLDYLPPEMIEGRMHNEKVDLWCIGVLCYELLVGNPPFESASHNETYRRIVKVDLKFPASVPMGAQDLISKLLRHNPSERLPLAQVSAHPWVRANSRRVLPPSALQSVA", "assay": "DSF thermal shift assay", "type": "binding", "settings": "inhibitor 10 μM, protein 2 μM", "method": "(§1) Differences in the melting temperature (ΔTm) were measured as described by Fedorov et al.. Purified proteins were buffered in 25 mM HEPES (pH 7.5), 500 mM NaCl and were assayed in a 384-well plate with a final protein concentration of 2 μM in 10 μL assay volume. Inhibitors were added to a final concentration of 10 μM using an ECHO 550 acoustic dispenser (Labcyte, San José, CA, USA). As a fluorescence probe, SYPRO-Orange (Molecular Probes, Eugene, OR, USA) was added in a 1:5000 dilution. […] Data were analyzed through Boltzmann equation in the Protein Thermal Shift software (Applied Biosystems, Waltham, MA, USA). Samples were measured in technical duplicates."}, "BMP2K": {"target": "T2, BMP2K (Homo sapiens, UniProt Q9NSY1)", "T2 construct": "purchased in-house DSF (thermal shift) panel per Fedorov et al", "T2 sequence (Q9NSY1 whole entry)": "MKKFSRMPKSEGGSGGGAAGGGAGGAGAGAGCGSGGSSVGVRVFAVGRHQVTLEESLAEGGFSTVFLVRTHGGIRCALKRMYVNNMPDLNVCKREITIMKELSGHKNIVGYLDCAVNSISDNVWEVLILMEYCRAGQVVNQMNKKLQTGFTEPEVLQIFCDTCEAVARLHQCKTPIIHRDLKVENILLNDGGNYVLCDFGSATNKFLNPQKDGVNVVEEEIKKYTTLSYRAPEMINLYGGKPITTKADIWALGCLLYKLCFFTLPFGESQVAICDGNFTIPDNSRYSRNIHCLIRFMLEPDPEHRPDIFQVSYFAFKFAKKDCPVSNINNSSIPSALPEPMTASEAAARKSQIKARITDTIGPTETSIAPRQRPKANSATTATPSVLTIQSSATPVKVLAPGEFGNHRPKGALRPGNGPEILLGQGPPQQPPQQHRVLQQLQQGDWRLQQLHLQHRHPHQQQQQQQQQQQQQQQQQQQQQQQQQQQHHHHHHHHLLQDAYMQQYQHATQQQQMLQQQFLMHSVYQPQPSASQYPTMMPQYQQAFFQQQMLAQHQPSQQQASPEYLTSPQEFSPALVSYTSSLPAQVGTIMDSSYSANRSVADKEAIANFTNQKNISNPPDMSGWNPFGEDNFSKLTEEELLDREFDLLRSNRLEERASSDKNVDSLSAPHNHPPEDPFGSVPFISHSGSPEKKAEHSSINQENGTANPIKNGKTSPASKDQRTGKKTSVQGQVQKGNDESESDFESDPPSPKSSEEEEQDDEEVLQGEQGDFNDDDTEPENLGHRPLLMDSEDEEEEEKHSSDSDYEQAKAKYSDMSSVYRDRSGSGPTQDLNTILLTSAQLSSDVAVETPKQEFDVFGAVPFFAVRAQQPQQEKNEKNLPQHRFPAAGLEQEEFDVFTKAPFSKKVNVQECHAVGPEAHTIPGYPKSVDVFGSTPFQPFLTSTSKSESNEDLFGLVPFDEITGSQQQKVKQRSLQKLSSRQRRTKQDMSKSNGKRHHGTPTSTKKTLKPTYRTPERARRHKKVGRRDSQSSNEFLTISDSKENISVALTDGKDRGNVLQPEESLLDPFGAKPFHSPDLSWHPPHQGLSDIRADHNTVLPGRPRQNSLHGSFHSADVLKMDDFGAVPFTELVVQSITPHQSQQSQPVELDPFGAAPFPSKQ", "assay": "DSF thermal shift assay", "type": "binding", "settings": "inhibitor 10 μM, protein 2 μM", "method": "as §1"}, "CDK2": {"target": "T3, CDK2 (Homo sapiens, UniProt P24941)", "T3 construct": "purchased in-house DSF (thermal shift) panel per Fedorov et al; IC50 follow-up at Reaction Biology Corp", "assay": "DSF thermal shift assay", "type": "binding", "settings": "inhibitor 10 μM, protein 2 μM", "method": "as §1"}, "CSNK2A2": {"target": "T4, CSNK2A2 (Homo sapiens, UniProt P19784)", "T4 construct": "purchased in-house DSF (thermal shift) panel per Fedorov et al", "T4 sequence (P19784 whole entry)": "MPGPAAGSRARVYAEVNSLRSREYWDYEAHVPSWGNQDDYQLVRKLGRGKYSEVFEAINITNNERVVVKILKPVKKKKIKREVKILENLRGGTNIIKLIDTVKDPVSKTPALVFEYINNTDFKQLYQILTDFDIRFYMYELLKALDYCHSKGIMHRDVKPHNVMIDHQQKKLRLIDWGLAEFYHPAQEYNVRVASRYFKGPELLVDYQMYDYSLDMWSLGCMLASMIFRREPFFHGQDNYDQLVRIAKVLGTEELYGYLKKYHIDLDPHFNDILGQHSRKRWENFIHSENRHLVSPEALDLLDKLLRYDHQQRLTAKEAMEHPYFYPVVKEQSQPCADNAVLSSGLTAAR", "assay": "DSF thermal shift assay", "type": "binding", "settings": "inhibitor 10 μM, protein 2 μM", "method": "as §1"}, "DAPK3": {"target": "T5, DAPK3 (Homo sapiens, UniProt O43293)", "T5 construct": "purchased in-house DSF (thermal shift) panel per Fedorov et al", "assay": "DSF thermal shift assay", "type": "binding", "settings": "inhibitor 10 μM, protein 2 μM", "method": "as §1"}, "DYRK1A": {"target": "T6, DYRK1A (Homo sapiens, UniProt Q13627)", "T6 construct": "purchased in-house DSF (thermal shift) panel per Fedorov et al", "assay": "DSF thermal shift assay", "type": "binding", "settings": "inhibitor 10 μM, protein 2 μM", "method": "as §1"}, "EPHA5": {"target": "T7, EPHA5 (Homo sapiens, UniProt P54756)", "T7 construct": "purchased in-house DSF (thermal shift) panel per Fedorov et al; IC50 follow-up at Reaction Biology Corp", "T7 sequence (P54756 25-1037)": "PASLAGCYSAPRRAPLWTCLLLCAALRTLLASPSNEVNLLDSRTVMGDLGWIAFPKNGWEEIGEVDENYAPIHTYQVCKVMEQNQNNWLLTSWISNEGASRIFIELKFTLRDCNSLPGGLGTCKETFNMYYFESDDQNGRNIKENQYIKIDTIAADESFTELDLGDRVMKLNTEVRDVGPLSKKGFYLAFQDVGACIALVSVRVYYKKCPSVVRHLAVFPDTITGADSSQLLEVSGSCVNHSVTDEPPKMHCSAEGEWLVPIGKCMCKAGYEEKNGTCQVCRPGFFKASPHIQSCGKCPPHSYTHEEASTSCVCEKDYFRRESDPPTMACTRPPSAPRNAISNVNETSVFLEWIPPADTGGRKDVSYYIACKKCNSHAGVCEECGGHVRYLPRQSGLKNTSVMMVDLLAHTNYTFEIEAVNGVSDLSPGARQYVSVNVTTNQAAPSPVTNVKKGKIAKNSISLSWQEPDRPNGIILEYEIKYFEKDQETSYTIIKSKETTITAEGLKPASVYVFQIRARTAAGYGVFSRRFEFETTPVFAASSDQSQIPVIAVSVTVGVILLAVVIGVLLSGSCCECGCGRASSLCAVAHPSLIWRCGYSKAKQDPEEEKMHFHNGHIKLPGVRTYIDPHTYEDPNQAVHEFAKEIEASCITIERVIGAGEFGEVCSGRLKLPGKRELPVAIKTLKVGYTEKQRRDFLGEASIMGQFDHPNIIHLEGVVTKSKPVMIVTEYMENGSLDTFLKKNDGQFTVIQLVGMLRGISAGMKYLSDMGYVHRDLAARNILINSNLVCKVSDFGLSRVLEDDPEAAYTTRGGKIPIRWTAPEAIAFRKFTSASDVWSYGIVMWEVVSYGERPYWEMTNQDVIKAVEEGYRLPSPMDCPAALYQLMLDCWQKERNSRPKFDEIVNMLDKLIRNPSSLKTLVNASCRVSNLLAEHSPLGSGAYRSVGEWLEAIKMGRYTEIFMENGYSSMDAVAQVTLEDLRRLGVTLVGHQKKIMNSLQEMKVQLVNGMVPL", "assay": "DSF thermal shift assay", "type": "binding", "settings": "inhibitor 10 μM, protein 2 μM", "method": "as §1"}, "FES": {"target": "T8, FES (Homo sapiens, UniProt P07332)", "T8 construct": "purchased in-house DSF (thermal shift) panel per Fedorov et al; IC50 follow-up at Reaction Biology Corp", "assay": "DSF thermal shift assay", "type": "binding", "settings": "inhibitor 10 μM, protein 2 μM", "method": "as §1"}, "FGFR1": {"target": "T9, FGFR1 (Homo sapiens, UniProt P11362)", "T9 construct": "purchased in-house DSF (thermal shift) panel per Fedorov et al; IC50 follow-up at Reaction Biology Corp", "T9 sequence (P11362 22-822)": "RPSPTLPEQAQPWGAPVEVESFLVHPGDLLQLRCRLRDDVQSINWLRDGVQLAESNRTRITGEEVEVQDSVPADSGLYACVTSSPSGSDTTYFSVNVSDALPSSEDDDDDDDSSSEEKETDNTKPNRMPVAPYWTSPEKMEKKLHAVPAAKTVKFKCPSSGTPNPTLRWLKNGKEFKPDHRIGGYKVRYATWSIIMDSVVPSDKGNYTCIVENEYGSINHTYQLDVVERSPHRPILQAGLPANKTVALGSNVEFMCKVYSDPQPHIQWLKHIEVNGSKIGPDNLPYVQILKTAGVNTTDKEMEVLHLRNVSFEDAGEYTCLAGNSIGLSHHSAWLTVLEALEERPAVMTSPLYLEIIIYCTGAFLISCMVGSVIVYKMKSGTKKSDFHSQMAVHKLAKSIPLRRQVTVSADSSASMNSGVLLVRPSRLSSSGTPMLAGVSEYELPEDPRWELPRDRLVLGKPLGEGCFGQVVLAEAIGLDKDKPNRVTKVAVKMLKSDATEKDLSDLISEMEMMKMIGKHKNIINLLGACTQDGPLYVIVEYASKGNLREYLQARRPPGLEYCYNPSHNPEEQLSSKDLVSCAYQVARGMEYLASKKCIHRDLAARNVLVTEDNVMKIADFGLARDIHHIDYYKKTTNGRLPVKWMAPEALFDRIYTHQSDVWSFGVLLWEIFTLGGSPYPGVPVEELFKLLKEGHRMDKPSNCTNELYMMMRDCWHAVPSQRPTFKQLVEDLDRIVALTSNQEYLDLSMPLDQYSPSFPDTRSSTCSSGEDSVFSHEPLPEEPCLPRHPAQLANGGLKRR", "assay": "DSF thermal shift assay", "type": "binding", "settings": "inhibitor 10 μM, protein 2 μM", "method": "as §1"}, "FGFR3": {"target": "T10, FGFR3 (Homo sapiens, UniProt P22607)", "T10 construct": "purchased in-house DSF (thermal shift) panel per Fedorov et al", "T10 sequence (P22607 23-806)": "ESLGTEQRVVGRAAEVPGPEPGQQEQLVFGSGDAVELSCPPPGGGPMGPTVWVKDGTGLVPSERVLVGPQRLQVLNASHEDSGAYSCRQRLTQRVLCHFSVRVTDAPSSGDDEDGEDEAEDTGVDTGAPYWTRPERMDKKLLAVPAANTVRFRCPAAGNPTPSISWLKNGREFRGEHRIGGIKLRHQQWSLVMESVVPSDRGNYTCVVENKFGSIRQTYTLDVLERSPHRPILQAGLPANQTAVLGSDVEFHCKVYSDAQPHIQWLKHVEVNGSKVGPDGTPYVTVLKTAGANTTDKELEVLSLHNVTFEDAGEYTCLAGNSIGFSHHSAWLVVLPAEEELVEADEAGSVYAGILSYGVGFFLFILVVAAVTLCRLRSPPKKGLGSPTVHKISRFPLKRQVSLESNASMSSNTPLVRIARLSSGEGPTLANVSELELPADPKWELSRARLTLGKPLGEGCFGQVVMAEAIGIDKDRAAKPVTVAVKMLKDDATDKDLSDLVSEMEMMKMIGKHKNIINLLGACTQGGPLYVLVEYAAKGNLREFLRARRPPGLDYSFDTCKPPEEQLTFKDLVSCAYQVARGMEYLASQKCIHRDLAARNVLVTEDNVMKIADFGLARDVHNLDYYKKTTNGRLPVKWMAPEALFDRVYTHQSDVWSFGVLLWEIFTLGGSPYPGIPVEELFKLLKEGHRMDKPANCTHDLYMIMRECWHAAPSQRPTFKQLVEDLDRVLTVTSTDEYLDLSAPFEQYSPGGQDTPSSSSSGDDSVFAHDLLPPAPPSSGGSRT", "assay": "DSF thermal shift assay", "type": "binding", "settings": "inhibitor 10 μM, protein 2 μM", "method": "as §1"}, "GAK": {"target": "T11, GAK (Homo sapiens, UniProt O14976)", "T11 construct": "purchased in-house DSF (thermal shift) panel per Fedorov et al; IC50 follow-up at Reaction Biology Corp", "assay": "DSF thermal shift assay", "type": "binding", "settings": "inhibitor 10 μM, protein 2 μM", "method": "as §1"}, "GPRK5": {"target": "T12, GPRK5 (Homo sapiens, UniProt P34947)", "T12 construct": "purchased in-house DSF (thermal shift) panel per Fedorov et al", "assay": "DSF thermal shift assay", "type": "binding", "settings": "inhibitor 10 μM, protein 2 μM", "method": "as §1"}, "GSG2": {"target": "T13, GSG2 (Homo sapiens, UniProt Q8TF76)", "T13 construct": "purchased in-house DSF (thermal shift) panel per Fedorov et al", "assay": "DSF thermal shift assay", "type": "binding", "settings": "inhibitor 10 μM, protein 2 μM", "method": "as §1"}, "MAPK14": {"target": "T14, MAPK14 (Homo sapiens, UniProt Q16539)", "T14 construct": "purchased in-house DSF (thermal shift) panel per Fedorov et al", "assay": "DSF thermal shift assay", "type": "binding", "settings": "inhibitor 10 μM, protein 2 μM", "method": "as §1"}, "MAPK15": {"target": "T15, MAPK15 (Homo sapiens, UniProt Q8TD08)", "T15 construct": "purchased in-house DSF (thermal shift) panel per Fedorov et al", "T15 sequence (Q8TD08 whole entry)": "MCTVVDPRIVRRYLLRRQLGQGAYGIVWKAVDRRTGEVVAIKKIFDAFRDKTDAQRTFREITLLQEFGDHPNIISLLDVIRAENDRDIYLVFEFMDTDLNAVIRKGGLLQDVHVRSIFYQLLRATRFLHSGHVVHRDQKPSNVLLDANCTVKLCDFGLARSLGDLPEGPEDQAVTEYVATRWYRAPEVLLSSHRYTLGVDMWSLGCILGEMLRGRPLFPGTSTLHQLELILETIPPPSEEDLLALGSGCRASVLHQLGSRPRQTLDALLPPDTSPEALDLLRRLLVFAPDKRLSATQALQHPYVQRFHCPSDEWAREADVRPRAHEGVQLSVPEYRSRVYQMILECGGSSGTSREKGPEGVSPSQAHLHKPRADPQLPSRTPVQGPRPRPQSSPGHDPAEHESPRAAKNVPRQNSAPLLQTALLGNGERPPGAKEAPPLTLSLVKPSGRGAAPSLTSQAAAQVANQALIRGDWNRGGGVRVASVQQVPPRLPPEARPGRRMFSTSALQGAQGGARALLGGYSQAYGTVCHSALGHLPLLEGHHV", "assay": "DSF thermal shift assay", "type": "binding", "settings": "inhibitor 10 μM, protein 2 μM", "method": "as §1"}, "MAPK8": {"target": "T16, MAPK8 (Homo sapiens, UniProt P45983)", "T16 construct": "purchased in-house DSF (thermal shift) panel per Fedorov et al; IC50 follow-up at Reaction Biology Corp", "assay": "DSF thermal shift assay", "type": "binding", "settings": "inhibitor 10 μM, protein 2 μM", "method": "as §1"}, "MARK3": {"target": "T17, MARK3 (Homo sapiens, UniProt P27448)", "T17 construct": "purchased in-house DSF (thermal shift) panel per Fedorov et al", "assay": "DSF thermal shift assay", "type": "binding", "settings": "inhibitor 10 μM, protein 2 μM", "method": "as §1"}, "PCTK1": {"target": "T18, PCTK1 (Homo sapiens, UniProt Q00536)", "T18 construct": "purchased in-house DSF (thermal shift) panel per Fedorov et al; IC50 follow-up at Reaction Biology Corp", "assay": "DSF thermal shift assay", "type": "binding", "settings": "inhibitor 10 μM, protein 2 μM", "method": "as §1"}, "PIM1": {"target": "T19, PIM1 (Homo sapiens, UniProt P11309)", "T19 construct": "purchased in-house DSF (thermal shift) panel per Fedorov et al", "assay": "DSF thermal shift assay", "type": "binding", "settings": "inhibitor 10 μM, protein 2 μM", "method": "as §1"}, "SRC": {"target": "T20, SRC (Homo sapiens, UniProt P12931)", "T20 construct": "purchased in-house DSF (thermal shift) panel per Fedorov et al", "assay": "DSF thermal shift assay", "type": "binding", "settings": "inhibitor 10 μM, protein 2 μM", "method": "as §1"}, "STK17B": {"target": "T21, STK17B (Homo sapiens, UniProt O94768)", "T21 construct": "purchased in-house DSF (thermal shift) panel per Fedorov et al; IC50 follow-up at Reaction Biology Corp", "assay": "DSF thermal shift assay", "type": "binding", "settings": "inhibitor 10 μM, protein 2 μM", "method": "as §1"}},
  "note": "Read-outs that look alike come from different tables or passages of the source.",
  "data": [
    {"smiles": "CCc1cnc(Nc2nc(Cl)ccc2[N+](=O)[O-])nc1N1CCN(Cc2nc3cc(C(F)(F)F)ccc3[nH]2)CC1", "note": "[Compound 2]", "values": [
      {"measurement": "half-life", "setting": "[1]; Nα-acetyl lysine in MeCN/PBS buffer, pH 7.4", "value": 48.1, "unit": "days"},
      {"measurement": "half-life", "setting": "[1]; Nα-acetyl lysine in sodium tetraborate buffer (28 mM), pH 10.2, corrected for aqueous degradation", "value": 1.12, "unit": "days"},
      {"measurement": "reactivity towards Nα-acetyl lysine", "setting": "[1]; physiological pH", "value": "negligible reactivity"},
      {"measurement": "stability in mouse liver microsomes", "setting": "Microsomal stability", "value": "acceptable stability"},
      {"measurement": "ΔTm at 10 µM", "setting": "AURKB", "value": 0, "unit": "°C"},
      {"measurement": "ΔTm at 10 µM", "setting": "BMP2K", "value": 0, "unit": "°C"},
      {"measurement": "ΔTm at 10 µM", "setting": "CDK2", "value": -0.2, "unit": "°C"},
      {"measurement": "ΔTm at 10 µM", "setting": "CSNK2A2", "value": 0.4, "unit": "°C"},
      {"measurement": "ΔTm at 10 µM", "setting": "DAPK3", "value": 0.9, "unit": "°C"},
      {"measurement": "ΔTm at 10 µM", "setting": "DYRK1A", "value": -2.4, "unit": "°C"},
      {"measurement": "ΔTm at 10 µM", "setting": "EPHA5", "value": 0.5, "unit": "°C"},
      {"measurement": "ΔTm at 10 µM", "setting": "FES", "value": 0, "unit": "°C"},
      {"measurement": "ΔTm at 10 µM", "setting": "FGFR1", "value": 0.4, "unit": "°C"},
      {"measurement": "ΔTm at 10 µM", "setting": "FGFR3", "value": 0.1, "unit": "°C"},
      {"measurement": "ΔTm at 10 µM", "setting": "GAK", "value": -0.6, "unit": "°C"},
      {"measurement": "ΔTm at 10 µM", "setting": "GPRK5", "value": -0.6, "unit": "°C"},
      {"measurement": "ΔTm at 10 µM", "setting": "GSG2", "value": 0.1, "unit": "°C"},
      {"measurement": "ΔTm at 10 µM", "setting": "MAPK14", "value": -0.5, "unit": "°C"},
      {"measurement": "ΔTm at 10 µM", "setting": "MAPK15", "value": -0.2, "unit": "°C"},
      {"measurement": "ΔTm at 10 µM", "setting": "MAPK8", "value": 0.3, "unit": "°C"},
      {"measurement": "ΔTm at 10 µM", "setting": "MARK3", "value": 0.9, "unit": "°C"},
      {"measurement": "ΔTm at 10 µM", "setting": "PCTK1", "value": -0.2, "unit": "°C"},
      {"measurement": "ΔTm at 10 µM", "setting": "PIM1", "value": -0.6, "unit": "°C"},
      {"measurement": "ΔTm at 10 µM", "setting": "SRC", "value": -0.5, "unit": "°C"},
      {"measurement": "ΔTm at 10 µM", "setting": "STK17B", "value": -0.8, "unit": "°C"}
    ]}
  ]
}
